# In US6524595B1, “Cyclodextrins preferentially substituted on their primary face by acid or amine functions” (priority 2000, dated 2003):
# Assays:
# [1] = Vitamin E determination by HPLC (fluorescence); type: physicochemical
# Method: The vitamin E content was determined by HPLC (fluorescence) and evaluated for each sample: […]
# [2] = Cutaneous penetration study of vitamin E on Franz cell (diffusion, release, storage); type: in vitro ADME, rat; settings: for percentage of vitamin E diffused: 2 g deposited, 2.54 cm^2 Franz cell, ethoxydiglycol receptor
# Method: Cutaneous penetration studies were carried out on products 26-a, 26-b, 26-c and 26-d from example 26. […] The receptor chamber was constituted by ethoxydiglycol and antibiotics. Diffusion was monitored over time by sampling from the receptor chamber then HPLC analysis (fluorescence). […] After rinsing the biopsy used in the diffusion study, it was kept in the Franz cell for 24 hours without donors. The quantity of active ingredient liberated in the ethoxydiglycol was then analyzed by HPLC, underlining the ability of the skin to temporarily retain the test solution (release study).
# [3] = Cutaneous penetration test of caffeine on Franz cell (diffusion, release, storage); type: in vitro ADME, rat; settings: for average quantity of caffeine per unit surface diffused into the receptor chamber: 2 g deposited, 2.54 cm^2 Franz cell, PBS receptor
# Method: The receptor chamber was constituted by a PBS buffer and antibiotics. Diffusion was monitored over time by sampling from the receptor chamber and analysis by high performance liquid chromatography. […] After rinsing the biopsy used in the diffusion study, it was kept in the Franz cell for 24 hours without donors. The quantity of active ingredient liberated in the PBS buffer was then analyzed by HPLC, to study the ability of the skin to temporarily retain the test solution (Release study).
# [4] = Aspect of the solution obtained / nanoparticle formation; type: physicochemical
# Method: The solution was then added at a constant rate (1 ml/s) to distilled water (450 ml) with stirring to form a milky solution. […] The procedure of example 15 was followed but instead of using the compound obtained in example 2, a commercial β-cyclodextrin with an identical molar concentration was used.
# [5] = tested on: skin of rabbits; experiment: Evaluation of primary dermal irritation in the rabbit; type: in vivo; settings: 10% in a 0.5% xanthan gel, undiluted, 0.5 ml
# Method: Toxicological tests were carried out on the compound obtained in example 2a incorporated in an amount of 10% into a 0.5% xanthan gel, by occular evaluation in the rabbit, by a study of the absence of abnormal toxicity by a single oral administration to the rat and by a sensitization power study in the guinea-pig.
# At the same time, a toxicological study was carried out under the same experimental conditions on commercial β-cyclodextrin incorporated in an amount of 10% into a 0.5% xanthan gel.
# The preparations described above were applied undiluted in a dose of 0.5 ml to the skin of 3 rabbits using the method recommended by the OECD directive regarding the study of “The acute dermal irritant/corrosive effect”.
# The products were classified in accordance with the criteria in the order of Feb. 1, 1982 published in the JORF [Official journal of the French Republic] on Feb. 2, 1982.
# [6] = biopsy in ethanolic solution 24 hours after release study
# [7] = rinsed biopsy kept in Franz cell 24 hours without donors
molecule,measurement,setting,value
"Cc1c(C)c2c(c(C)c1O)CC[C@@](C)(CCC[C@H](C)CCC[C@H](C)CCCC(C)C)O2 [Example 26-d, vitamin E]",Vitamin E determination (vitamin E content of sample),[1]; 0.1% of vitamin E used,0.0943%
same,percentage of vitamin E diffused,[2]; 0 hours,0
same,percentage of vitamin E diffused,[2]; 48 hours,10.32%
same,Storage (vitamin E still present in the skin),[2]; [6],1.74 ± 0.24 % diffusion
same,Release (vitamin E liberated in the ethoxydiglycol),[2]; [7],3.33 ± 0.9 % diffusion
"Cn1c(=O)c2c(ncn2C)n(C)c1=O [Caffeine free, caffeine]",average quantity of caffeine per unit surface diffused into the receptor chamber,[3]; 0 hours,0 μg/cm^2
same,average quantity of caffeine per unit surface diffused into the receptor chamber,[3]; 24 hours,1783 μg/cm^2
same,Storage (caffeine still present in the skin),[3]; [6],26.57 ± 6.55 μg/cm2
same,Release (caffeine liberated in the PBS buffer),[3]; [7],286.8 ± 28.36 μg/cm2
"OC[C@H]1O[C@@H]2O[C@H]3[C@H](O)[C@@H](O)[C@@H](O[C@H]4[C@H](O)[C@@H](O)[C@@H](O[C@H]5[C@H](O)[C@@H](O)[C@@H](O[C@H]6[C@H](O)[C@@H](O)[C@@H](O[C@H]7[C@H](O)[C@@H](O)[C@@H](O[C@H]8[C@H](O)[C@@H](O)[C@@H](O[C@H]1[C@H](O)[C@H]2O)O[C@@H]8CO)O[C@@H]7CO)O[C@@H]6CO)O[C@@H]5CO)O[C@@H]4CO)O[C@@H]3CO [commercial β-cyclodextrin, β-cyclodextrin]",solubility in water (in words),[4],soluble in water
same,nanoparticle formation (in words),[4]; nanoparticle protocol with commercial β-cyclodextrin at identical molar concentration,no nanoparticles are formed
same,primary dermal irritation classification,[5],slight irritant for the skin
(Lauroate)y-β-cyclodextrin [Example 2a],encapsulation of vitamin E (in words),[1],encapsulated the vitamin E highly effectively
same,primary dermal irritation classification,[5],non irritant to the skin
